Reference: ChEMBL document CHEMBL1142479, “Studies on the synthesis of neamine-dinucleosides and neamine-PNA conjugates and their interaction with RNA” (Bioorg Med Chem Lett, 2008)

What was measured:
[1] = Binding affinity to trans-activation response RNA by surface plasmon resonance
[2] = Ratio of Kd for 18S RNA to Kd for 16S RNA
[3] = Binding affinity to 18S RNA by surface plasmon resonance
[4] = Binding affinity to 16S RNA by surface plasmon resonance

Cc1cn([C@H]2C[C@H](O)[C@@H](COP(=O)(O)O[C@H]3C[C@H](n4ccc(=O)[nH]c4=O)O[C@@H]3C(=O)NCCN[C@H]3[C@@H](O)[C@H](N)C[C@H](N)[C@H]3O[C@H]3O[C@H](CN)[C@@H](O)[C@H](O)[C@H]3N)O2)c(=O)[nH]c1=O
Kd [1]: 1000 µM
Ratio [2]: 3.45
Kd [3]: 1210 µM
Kd [4]: 352 µM

Cc1cn(CC(=O)N(CCNC(=O)CN(CCN)C(=O)Cn2ccc(=O)[nH]c2=O)CC(=O)NCCN[C@H]2[C@@H](O)[C@H](N)C[C@H](N)[C@H]2O[C@H]2O[C@H](CN)[C@@H](O)[C@H](O)[C@H]2N)c(=O)[nH]c1=O
Kd [1]: 6 µM
Ratio [2]: 1.81
Kd [3]: 20 µM
Kd [4]: 11 µM

Cc1cn(CC(=O)N(CCN)CC(=O)NCCN(CC(=O)NCCN[C@H]2[C@@H](O)[C@H](N)C[C@H](N)[C@H]2O[C@H]2O[C@H](CN)[C@@H](O)[C@H](O)[C@H]2N)C(=O)Cn2ccc(=O)[nH]c2=O)c(=O)[nH]c1=O
Kd [1]: 8 µM
Ratio [2]: 2.08
Kd [3]: 25 µM
Kd [4]: 12 µM

Cc1cn([C@H]2C[C@H](OP(=O)(O)OC[C@H]3O[C@@H](n4cc(C)c(=O)[nH]c4=O)C[C@@H]3O)[C@@H](C(=O)NCCCN[C@H]3[C@@H](O)[C@H](N)C[C@H](N)[C@H]3O[C@H]3O[C@H](CN)[C@@H](O)[C@H](O)[C@H]3N)O2)c(=O)[nH]c1=O
Kd [1]: 533 µM
Ratio [2]: 1.76
Kd [3]: 555 µM
Kd [4]: 316 µM

Cc1cn([C@H]2C[C@H](OP(=O)(O)OC[C@H]3O[C@@H](n4ccc(=O)[nH]c4=O)C[C@@H]3O)[C@@H](C(=O)NCCN[C@H]3[C@@H](O)[C@H](N)C[C@H](N)[C@H]3O[C@H]3O[C@H](CN)[C@@H](O)[C@H](O)[C@H]3N)O2)c(=O)[nH]c1=O
Kd [1]: 476 µM
Ratio [2]: 2.11
Kd [3]: 479 µM
Kd [4]: 227 µM

NC[C@H]1O[C@H](O[C@H]2[C@H](O)[C@@H](O)[C@H](N)C[C@@H]2N)[C@H](N)[C@@H](O)[C@@H]1O [NEAMINE]
Kd [1]: 11 µM
Ratio [2]: 2.36
Kd [3]: 26 µM
Kd [4]: 11 µM

Cc1cn(CC(=O)N(CCN)CC(=O)NCCN(CC(=O)NCCN[C@H]2[C@@H](O)[C@H](N)C[C@H](N)[C@H]2O[C@H]2O[C@H](CN)[C@@H](O)[C@H](O)[C@H]2N)C(=O)Cn2cc(C)c(=O)[nH]c2=O)c(=O)[nH]c1=O
Kd [1]: 5 µM
Ratio [2]: 1.11
Kd [3]: 10 µM
Kd [4]: 9 µM

Cc1cn([C@H]2C[C@H](OP(=O)(O)OC[C@H]3O[C@@H](n4cc(C)c(=O)[nH]c4=O)C[C@@H]3O)[C@@H](C(=O)NCCCCCCN[C@H]3[C@@H](O)[C@H](N)C[C@H](N)[C@H]3O[C@H]3O[C@H](CN)[C@@H](O)[C@H](O)[C@H]3N)O2)c(=O)[nH]c1=O
Kd [1]: 115 µM
Ratio [2]: 1.28
Kd [3]: 266 µM
Kd [4]: 208 µM

NCCN(CC(=O)NCCN(CC(=O)NCCN[C@H]1[C@@H](O)[C@H](N)C[C@H](N)[C@H]1O[C@H]1O[C@H](CN)[C@@H](O)[C@H](O)[C@H]1N)C(=O)Cn1ccc(=O)[nH]c1=O)C(=O)Cn1ccc(=O)[nH]c1=O
Kd [1]: 11 µM
Ratio [2]: 2.06
Kd [3]: 35 µM
Kd [4]: 17 µM

Cc1cn(CC(=O)N(CCN)CC(=O)NCCN[C@H]2[C@@H](O)[C@H](N)C[C@H](N)[C@H]2O[C@H]2O[C@H](CN)[C@@H](O)[C@H](O)[C@H]2N)c(=O)[nH]c1=O
Kd [1]: 10 µM
Ratio [2]: 1.38
Kd [3]: 11 µM
Kd [4]: 8 µM

Cc1cn([C@H]2C[C@H](OP(=O)(O)OC[C@H]3O[C@@H](n4cc(C)c(=O)[nH]c4=O)C[C@@H]3O)[C@@H](C(=O)NCCN[C@H]3[C@@H](O)[C@H](N)C[C@H](N)[C@H]3O[C@H]3O[C@H](CN)[C@@H](O)[C@H](O)[C@H]3N)O2)c(=O)[nH]c1=O
Kd [1]: 634 µM
Ratio [2]: 1.8
Kd [3]: 548 µM
Kd [4]: 304 µM

NCCN(CC(=O)NCCN[C@H]1[C@@H](O)[C@H](N)C[C@H](N)[C@H]1O[C@H]1O[C@H](CN)[C@@H](O)[C@H](O)[C@H]1N)C(=O)Cn1ccc(=O)[nH]c1=O
Kd [1]: 24 µM
Ratio [2]: 1.21
Kd [3]: 17 µM
Kd [4]: 14 µM

NC[C@H]1O[C@H](O[C@H]2[C@@H](NCCNC(=O)[C@H]3O[C@@H](n4ccc(=O)[nH]c4=O)C[C@@H]3OP(=O)(O)OC[C@H]3O[C@@H](n4ccc(=O)[nH]c4=O)C[C@@H]3O)[C@@H](O)[C@H](N)C[C@@H]2N)[C@H](N)[C@@H](O)[C@@H]1O
Kd [1]: 417 µM
Ratio [2]: 2.24
Kd [3]: 404 µM
Kd [4]: 180 µM

NCCN(CC(=O)NCCN[C@H]1[C@@H](O)[C@H](N)C[C@H](N)[C@H]1O[C@H]1O[C@H](CN)[C@@H](O)[C@H](O)[C@H]1N)C(=O)Cn1cnc2c(N)ncnc21
Kd [1]: 12 µM
Ratio [2]: 0.75
Kd [3]: 12 µM
Kd [4]: 16 µM
